Assay results: patent US12410160B2 (Gilead Sciences, Inc., priority 2021, dated 2025)
Read-outs that look alike come from different tables or passages of the source.

Legend:
[1] = target: human KHK-C (Homo sapiens (Human), UniProt P50053); assay: KHK Biochemical Assay (IC50), ADP-Glo, KHK-C; details: average of at least two separate assays
In short: (§1)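 Luminescent ADP-Glo read-out of ADP made by His-tagged KHK (BL21 (DE3) expression, Ni-NTA). Enzyme and compound sat together 30 min before ATP/fructose addition, then reacted 4 h at RT in Hepes pH 7.4 buffer with KCl, MgCl2, Triton-X. Quench 1 h, detection 1 h.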

[2] = target: human KHK-A (Homo sapiens (Human), UniProt P50053); assay: KHK Biochemical Assay (IC50), ADP-Glo, KHK-A; details: average of at least two separate assays
human KHK-A, sequence (P50053 other isoform, or with tags, fused parts or gaps): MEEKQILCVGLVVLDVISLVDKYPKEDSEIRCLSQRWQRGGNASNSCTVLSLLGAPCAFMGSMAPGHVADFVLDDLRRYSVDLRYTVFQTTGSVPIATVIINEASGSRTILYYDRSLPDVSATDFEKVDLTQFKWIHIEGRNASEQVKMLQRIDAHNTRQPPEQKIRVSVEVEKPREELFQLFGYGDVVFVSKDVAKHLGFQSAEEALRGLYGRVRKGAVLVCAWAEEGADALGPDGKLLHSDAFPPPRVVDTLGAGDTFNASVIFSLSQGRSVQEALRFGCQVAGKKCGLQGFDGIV
In short: as §1

[3] = test system: HepG2 cells; assay: F1P Cell-Based Assay (EC50), 13C6-fructose-1-phosphate in HepG2 cells (cell culture medium or 50% human plasma)
[4] = target: KHK-C expressed in NRK-52E cells (Homo sapiens (Human), UniProt P50053); assay: KHK-C Cell-based Assay (EC50), NRK CTG, fructose-mediated ATP-depletion
KHK-C expressed in NRK-52E cells, sequence (P50053 whole entry): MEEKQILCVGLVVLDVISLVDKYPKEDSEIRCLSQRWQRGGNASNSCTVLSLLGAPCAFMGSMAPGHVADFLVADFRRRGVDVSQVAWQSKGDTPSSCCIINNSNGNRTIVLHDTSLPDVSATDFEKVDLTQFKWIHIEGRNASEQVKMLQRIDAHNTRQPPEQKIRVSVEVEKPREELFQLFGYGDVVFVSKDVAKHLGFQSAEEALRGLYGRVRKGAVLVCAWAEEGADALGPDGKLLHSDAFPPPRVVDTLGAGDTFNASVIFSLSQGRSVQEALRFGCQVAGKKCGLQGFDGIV

[5] = HepG2 cells, 50% human plasma, read-out: F1P 50% HP EC50
[6] = read-out: F1P 10% FBS EC50, HepG2 cells, cell culture medium (10% FBS)
[7] = read-out: NRK CTG EC50, NRK-52E cells, Cell-Titer Glo, 25 mM fructose
[8] = Homo sapiens, HepG2, HepG2 cells, 50% human plasma, read-out: F1P 50% HP EC50
[9] = Homo sapiens, HepG2, read-out: F1P 10% FBS EC50, HepG2 cells, cell culture medium (10% FBS)
[10] = read-out: NRK CTG EC50, NRK-52E cells, Cell-Titer Glo, 25 mM fructose, 48 hours

human KHK-C, sequence (P50053 whole entry): as above

With C[C@H]1[C@H](O)CN1c1nc(-c2ccc3c(c2)COC[C@@]32COC(=O)N2)c2c(n1)C(F)(F)CC2 (single isomer, unassigned) [Example 555] the IC50 [1] was 1.2 nM, the IC50 [2] was 30.5 nM and the EC50 [3, 5] was 117 nM. It also gave an EC50 [3, 6] of 59.7 nM and an EC50 [4, 7] of 29 nM.
In the case of C[C@H]1[C@H](O)CN1c1nc(-c2ccc3c(c2)COC[C@]32COC(=O)N2)c2c(n1)C(F)(F)CC2 (single isomer, unassigned) [Example 556], the IC50 [1] is reported as 26.6 nM, the IC50 [2] is reported as 42.1 nM and the EC50 [3, 8] is reported as over 500 nM. The EC50 [3, 9] was 210 nM and the EC50 [4] was 201 nM.
Work on CC1OC[C@@]2(COc3cc(-c4nc(N5C[C@@H](O)[C@@H]5C)nc5c4CCC5(F)F)ccc32)NC1=O (single isomer, unassigned) [Example 559] yielded an IC50 [1] of 0.2 nM, an IC50 [2] of 7.8 nM and an EC50 [3, 5] of 16.3 nM. It also gave an EC50 [3, 6] of 5.6 nM and an EC50 [4, 7] of 3.2 nM.
For CCN1C(=O)N[C@]2(COc3cc(-c4nc(N5C[C@@H](O)[C@@H]5C)nc5c4CCC5(F)F)ccc32)C1=O (single isomer, unassigned) [Example 697], the IC50 [1] was 0.1 nM, the IC50 [2] was 8.6 nM and the EC50 [3, 8] was 23.7 nM. For the same compound, the EC50 [3, 9] was 20.1 nM and the EC50 [4] was 3.7 nM.
With CCN1C(=O)N[C@@]2(COc3cc(-c4nc(N5C[C@@H](O)[C@@H]5C)nc5c4CCC5(F)F)ccc32)C1=O (single isomer, unassigned) [Example 698] the IC50 [1] was 5.6 nM, the IC50 [2] was 47.4 nM and the EC50 [3, 5] was 267 nM. The EC50 [3, 6] was 152 nM and the EC50 [4, 7] was 71.5 nM.
In the case of C[C@H]1[C@H](O)CN1c1nc(-c2ccc3c(c2)[S@](=N)(=O)CCO3)c2c(n1)C(F)(F)CC2 (single isomer, unassigned) [Example 820], the IC50 ([1]; ADP-Glo) is reported as 6.2 nM, the IC50 ([2]; ADP-Glo) is reported as 14.3 nM and the EC50 [3, 5] is reported as 67.8 nM. For the same compound, the EC50 [3, 6] was 20.3 nM and the EC50 [4, 10] was 26.5 nM.
With C[C@H]1[C@H](O)CN1c1nc(-c2cnc3c(c2)OC[C@@H]3NS(C)(=O)=O)c2c(n1)C(F)(F)CC2 (single isomer, unassigned) [Example 823] the IC50 ([1]; ADP-Glo) was 6.4 nM, the IC50 ([2]; ADP-Glo) was 48.2 nM and the EC50 [3, 5] was 216 nM. It also gave an EC50 [3, 6] of 90.6 nM and an EC50 [4, 10] of 56.3 nM.
C[C@H]1[C@H](O)CN1c1nc(-c2ccc3c(c2)OC[C@@]32NC(=O)N(C)C2=O)c2c(n1)C(F)(F)CC2 (single isomer, unassigned) [Example 826] gave an IC50 ([1]; ADP-Glo) of 0.3 nM, an IC50 ([2]; ADP-Glo) of 12.3 nM and an EC50 [3, 8] of 16.8 nM. It also gave an EC50 [3, 9] of 15.7 nM and an EC50 [4] of 4.2 nM.
Compound C[C@H]1CCN1c1nc(-c2ccc(C3(N)COC3)cc2)c2c(n1)C(F)(F)CC2 [Example 160, (S)-3-(4-(7,7-difluoro-2-(2-methylazetidin-1-yl)-6,7-dihydro-5H-cyclopenta[d]pyrimidin-4-yl)phenyl)oxetan-3-amine] has an IC50 ([1]; ADP-Glo) of 0.9 nM, an IC50 ([2]; ADP-Glo) of 4.6 nM and an EC50 [3, 8] of 13.4 nM. For the same compound, the EC50 [3, 9] was 4.8 nM and the EC50 [4] was 2 nM.
For C[C@H]1CCN1c1nc2c(c(-c3ccc(C4(N)CCC4)cc3)n1)CCC2 [Example 312, (S)-1-(4-(2-(2-methylazetidin-1-yl)-6,7-dihydro-5H-cyclopenta[d]pyrimidin-4-yl)phenyl)cyclobutan-1-amine], the IC50 ([1]; ADP-Glo) was 0.9 nM, the IC50 ([2]; ADP-Glo) was 1.2 nM and the EC50 [3, 8] was 9.3 nM. For the same compound, the EC50 [3, 9] was 3.9 nM and the EC50 [4] was 2.1 nM.
For C[C@H]1[C@H](O)CN1c1nc(-c2cc3c(c(S(N)(=O)=O)c2)OCC3)c2c(n1)C(F)(F)CC2 [Example 351, 5-(7,7-difluoro-2-((2S,3R)-3-hydroxy-2-methylazetidin-1-yl)-6,7-dihydro-5H-cyclopenta[d]pyrimidin-4-yl)-2,3-dihydrobenzofuran-7-sulfonamide], the IC50 ([1]; ADP-Glo) was 4.1 nM, the IC50 ([2]; ADP-Glo) was 6.4 nM and the EC50 [3, 8] was 42.9 nM. It also gave an EC50 [3, 9] of 27.4 nM and an EC50 [4] of 97.2 nM.
C[C@H]1[C@H](F)CN1c1nc(-c2ccc(C3(N)COC3)cc2)c2c(n1)C(F)(F)CC2 [Example 468, 3-(4-(7,7-difluoro-2-((2S,3R)-3-fluoro-2-methylazetidin-1-yl)-6,7-dihydro-5H-cyclopenta[d]pyrimidin-4-yl)phenyl)oxetan-3-amine] was tested, and the IC50 [1] was 1.8 nM, the IC50 [2] was 5.3 nM and the EC50 [3, 8] was 23.8 nM. It also gave an EC50 [3, 9] of 7.6 nM and an EC50 [4] of 4.3 nM.
C[C@@H]1N(c2nc(-c3ccc(C4(N)COC4)cc3)c3c(n2)C(F)(F)CC3)CC1(F)F [Example 470, (S)-3-(4-(2-(3,3-difluoro-2-methylazetidin-1-yl)-7,7-difluoro-6,7-dihydro-5H-cyclopenta[d]pyrimidin-4-yl)phenyl)oxetan-3-amine] was tested, and the IC50 [1] was 1.9 nM, the IC50 [2] was 6.3 nM and the EC50 [3, 8] was 51 nM. For the same compound, the EC50 [3, 9] was 13.4 nM and the EC50 [4] was 5 nM.
C[C@H]1[C@H](O)CN1c1nc(-c2ccc3c(c2)CC[C@]32NC(=O)N(C)C2=O)c2c(n1)C(F)(F)CC2 [Example 488, (58)-5′-[7,7-difluoro-2-[(2S,3R)-3-hydroxy-2-methyl-azetidin-1-yl]-5,6-dihydrocyclopenta[d]pyrimidin-4-yl]-3-methyl-spiro[imidazolidine-5,1′-indane]-2,4-dione] showed an IC50 [1] of 0.1 nM, an IC50 [2] of 10.6 nM and an EC50 [3, 8] of 44.4 nM. For the same compound, the EC50 [3, 9] was 28.7 nM and the EC50 [4] was 4.1 nM.
C[C@H]1C[C@H](C)N1c1nc(-c2ccc(C3(N)COC3)cc2)c2c(n1)C(F)(F)CC2 [Example 504, 3-(4-(2-((2S,4S)-2,4-dimethylazetidin-1-yl)-7,7-difluoro-6,7-dihydro-5H-cyclopenta[d]pyrimidin-4-yl)phenyl)oxetan-3-amine] gave an IC50 [1] of 2.3 nM, an IC50 [2] of 10.1 nM and an EC50 [3, 8] of 34.7 nM. For the same compound, the EC50 [3, 9] was 9.9 nM and the EC50 [4] was 11.5 nM.
COc1ccc(-c2nc(N3C[C@@H](F)[C@@H]3C)nc3c2CCC3(F)F)cc1[S@@](C)(=N)=O [Example 561, (S)-(5-(7,7-difluoro-2-((2S,3R)-3-fluoro-2-methylazetidin-1-yl)-6,7-dihydro-5H-cyclopenta[d]pyrimidin-4-yl)-2-methoxyphenyl)(imino)(methyl)-λ^6-sulfanone] showed an IC50 [1] of 1.1 nM, an IC50 [2] of 0.2 nM and an EC50 [3, 8] of 24.6 nM. For the same compound, the EC50 [3, 9] was 3.5 nM and the EC50 [4] was 8 nM.
For COc1ccc(-c2nc(N3C[C@H](F)[C@@H]3C)nc3c2CCC3(F)F)cc1[S@@](C)(=N)=O [Example 562, (S)-(5-(7,7-difluoro-2-((2S,3S)-3-fluoro-2-methylazetidin-1-yl)-6,7-dihydro-5H-cyclopenta[d]pyrimidin-4-yl)-2-methoxyphenyl)(imino)(methyl)-λ^6-sulfanone], the IC50 [1] was 1.4 nM, the IC50 [2] was 0.3 nM and the EC50 [3, 8] was 3.6 nM. The EC50 [3, 9] was 1.1 nM and the EC50 [4] was 5.8 nM.
Compound COc1ccc(-c2nc(N3CC(F)(F)[C@@H]3C)nc3c2CCC3(F)F)cc1[S@@](C)(=N)=O [Example 563, (S)-(5-(2-((S)-3,3-difluoro-2-methylazetidin-1-yl)-7,7-difluoro-6,7-dihydro-5H-cyclopenta[d]pyrimidin-4-yl)-2-methoxyphenyl)(imino)(methyl)-λ^6-sulfanone] has an IC50 [1] of 1.7 nM, an IC50 [2] of 0.2 nM and an EC50 [3, 8] of 6.7 nM. The EC50 [3, 9] was 0.6 nM and the EC50 [4] was 5.1 nM.
C[C@H]1[C@H](O)CN1c1nc(-c2ccc(OC(F)(F)F)c(S(C)(=N)=O)c2)c2c(n1)C(F)(F)CC2 (stereo partly drawn) [Example 564, (5-(7,7-difluoro-2-((2S,3R)-3-hydroxy-2-methylazetidin-1-yl)-6,7-dihydro-5H-cyclopenta[d]pyrimidin-4-yl)-2-(trifluoromethoxy)phenyl)(imino)(methyl)-λ^6-sulfanone] showed an IC50 [1] of 24.4 nM, an IC50 [2] of 11.6 nM and an EC50 [3, 8] of 142 nM. For the same compound, the EC50 [3, 9] was 38.5 nM and the EC50 [4] was 98.1 nM.
In the case of C[C@H]1[C@H](O)CN1c1nc(-c2ccc3c(c2)OCC32NC(=O)OC2(C)C)c2c(n1)C(F)(F)CC2 (stereo partly drawn) [Example 565, 6-(7,7-difluoro-2-((2S,3R)-3-hydroxy-2-methylazetidin-1-yl)-6,7-dihydro-5H-cyclopenta[d]pyrimidin-4-yl)-5′,5′-dimethyl-2H-spiro[benzofuran-3,4′-oxazolidin]-2′-one], the IC50 [1] is reported as 2.6 nM, the IC50 [2] is reported as 32.8 nM and the EC50 [3, 8] is reported as 204 nM. It also gave an EC50 [3, 9] of 50.3 nM and an EC50 [4] of 19.3 nM.
C[C@H]1[C@H](O)CN1c1nc(-c2ccc3c(c2)CC[C@]32NC(=O)N(CCO)C2=O)c2c(n1)C(F)(F)CC2 [Example 686, (58)-5′-[7,7-difluoro-2-[(2S,3R)-3-hydroxy-2-methyl-azetidin-1-yl]-5,6-dihydrocyclopenta[d]pyrimidin-4-yl]-3-(2-hydroxyethyl)spiro[imidazolidine-5,1′-indane]-2,4-dione] gave an IC50 [1] of 0.1 nM, an IC50 [2] of 16.7 nM and an EC50 [3, 8] of 71 nM. For the same compound, the EC50 [3, 9] was 67.8 nM and the EC50 [4] was 6.4 nM.
For CCCN1C(=O)NC2(COc3cc(-c4nc(N5C[C@@H](O)[C@@H]5C)nc5c4CCC5(F)F)ccc32)C1=O (stereo partly drawn) [Example 693, 6-[7,7-difluoro-2-[(2S,3R)-3-hydroxy-2-methyl-azetidin-1-yl]-5,6-dihydroeyelopenta[d]pyrimidin-4-yl]-3′-propyl-spiro[2H-benzofuran-3,5′-imidazolidine]-2′,4′-dione], the IC50 [1] was 0.2 nM, the IC50 [2] was 47.2 nM and the EC50 [3, 8] was 141 nM. For the same compound, the EC50 [3, 9] was 22.4 nM and the EC50 [4] was 6.4 nM.
